Assay results: patent US5726162A (priority 1996, dated 1998)
Where “and” joins values, the source holds several entries; their conditions need not be identical. Equal values may be shown once. Read-outs that look alike come from different tables or passages of the source.

Experiments:
[1] = system: fungal inoculum; assay: organism not typed; assay type: cell-based; conditions: read-out: % growth inhibition
[2] = system: Magnaporthe grisea (Pyricularia oryzae); assay: whole plant or invertebrate; assay type: in vivo, Magnaporthe grisea (Pyricularia oryzae) on M201 rice plants; conditions: Pyricularia oryzae, 144 h, read-out: % Control RB
[3] = system: Thanatephorus cucumeris (Rhizoctonia solani); assay: In vivo test b) Rice Sheath Blight (RSB), 24 hour preapplication protectant, % control; conditions: 200 ppm, protectant, read-out: % Control RSB
Experimental: Compounds were tested at 200 ppm as a twenty-four hour preapplication protectant test prior to inoculation.
b) Rice Sheath Blight (RSB)
Thanatephorus cucumeris (Rhizoctonia solani) mycelia were grown for six days in potato dextrose broth in shake culture. Drained mycelial mats were blended with an approximately equal weight of rice flour and five parts water. This slurry was dispensed onto the soil surface of pots containing rice seedlings previously treated with experimental compounds. The plants were placed in a mist chamber at 25°-28° C. for 48 hours. Following two more days at 25° C. and 70-90% relative humidity the plants were evaluated for percent disease control compared to check plants.

[4] = system: Candida albicans; assay: Activity against Candida albicans in microtiter plates, % control of growth; assay type: cell-based
Experimental: The activity against Candida albicans was determined using the following test protocol.
Conidia and mycelium from the Candida albicans culture maintained on potato dextrose agar plates were lightly scraped off into yeast extract-dextrose broth (YDB) so that mostly conidia was used as inoculum. The conidial suspsension was strained through a double layer of cheesecloth to remove mycelial clumps. The inoculum mixture was placed in microtiter plates using a 12-tipped pipet. 175 microliters were placed in each well of the microliter plates and the plates were placed in the refrigerator overnight. There were two replications.
The compounds to be tested were dissolved in 1:1 acetone:methanol and 100 ppm of the compound solution were placed in a well of the prepared microtiter plates.
The microtiter plates were incubated for 7 days at room temperature after addition of the compounds. Percent control was visually estimated using a microtiter plate reading mirror. Readings were made at 1, 2, 3, and/or 7 days after treatment.

[5] = system: Pyricularia oryzae; assay type: in vivo, Pyricularia oryzae on M-201 rice plants; conditions: protectant
[6] = system: fungal mycelium; assay: organism not typed; assay type: cell-based; conditions: read-out: % growth inhibition
[7] = system: Pyricularia oryzae; assay type: in vivo, Pyricularia oryzae on M-201 rice plants; conditions: curative
[8] = system: Septoria nodorum; assay: Wheat Septoria preventative experiments (single fungicides and combinations); assay type: in vivo, Septoria nodorum on Fielder wheat plants
Experimental: (§1) The experiments below were performed using the relevant following procedures.
(§2) Experimental compounds and commercial fungicides were tank mixed and mechanically sprayed at varying concentrations in a 1:1:2 mixture of acetone, methanol and water. Protective or preventive sprays were applied one day before spore inoculation. Curative or post-infection sprays were applied one day after spore inoculation. The spraying system utilized delivered a 200 ppm dose at the rate of 1458 liters per hectare. The following details were applicable for the specified diseases:
Fielder wheat plants were inoculated with Septoria nodorum conidia. The spore concentration was approximately 3,000,000 conidia per milliliter in water. An atomizer was used to apply twenty milliliters of inoculum to twenty plants per flat. The plants were placed in a humidity cabinet at 100% relative humidity for 72 hours and then placed in a greenhouse. Evaluations were made 10 days after inoculation.
(§3) "Disease control" was recorded as percent control based on a comparison of the unsprayed, inoculated controls and the treated, inoculated plants.

[9] = system: Boytrytis cinerea; assay: Tomato Botrytis protective experiments (single fungicides and combinations); assay type: in vivo, Boytrytis cinerea on Pixie tomato plants
Experimental: as §1, §2
Three week-old "Pixie" tomato plants were inoculated with Boytrytis cinerea conidia. The plants were held in dim light for two days prior to inoculation. The spore concentration was 500,000 to 650,000 conidia per milliliter of dextrose solution. An atomizer was used to apply the conidial suspension in a heavy coating to near runoff to both the upper and lower leaf surfaces and to the plant stem. The plants were kept in a continuous mist chamber with a day-night cycle and at 20 degrees centigrade for 5 days.
as §3

[10] = 24 h, 1 day after treatment, read-out: % control of growth +1
[11] = 48 h, 2 days after treatment, read-out: % control of growth +2
[12] = 72 h, 3 days after treatment, read-out: % control of growth +3
[13] = 168 h, 7 days after treatment, read-out: % control of growth +7

Compound: CCC#CCN1N=C(c2ccc(Cl)cc2)CCC1=O [Compound 12, 6-(4-chlorophenyl)-2-(2'-pentynyl)-4,5-dihydropyridazinone]
- inhibition at 1 ppm [1]: 96%
- pest or weed control at 200 ppm [2]: 99%
- pest or weed control at 200 ppm [3]: 50%
- inhibition of growth at 100 ppm [4, 10]: 100%
- inhibition of growth at 100 ppm [4, 11]: 100%
- inhibition of growth at 100 ppm [4, 12]: 100%
- inhibition of growth at 100 ppm [4, 13]: 100%
- % Disease Control, Observed ([5]; 12 ppm alone): 0%
- % Disease Control, Observed ([5]; 50 ppm alone): 50%
- % Disease Control, Observed ([5]; 200 ppm alone): 50%

Compound: CCC#CCn1nc(-c2ccc(Cl)cc2)ccc1=O [Compound 109, 6-(4-chlorophenyl)-2-(2'-pentynyl)pyridazinone]
- inhibition at 1 ppm [6]: 100%
- pest or weed control at 200 ppm [2]: 99%
- pest or weed control at 200 ppm [3]: 100%
- inhibition of growth at 100 ppm [4, 10]: 100%
- inhibition of growth at 100 ppm [4, 11]: 100%
- inhibition of growth at 100 ppm [4, 12]: 100%
- inhibition of growth at 100 ppm [4, 13]: 100%
- % Disease Control, Observed ([5]; 12 ppm alone): 0%
- % Disease Control, Observed ([5]; 50 ppm alone): 0%
- % Disease Control, Observed ([5]; 200 ppm alone): 99% and 80%
- % Disease Control, Observed ([7]; 12 ppm alone): 0%
- % Disease Control, Observed ([7]; 50 ppm alone): 50%
- % Disease Control, Observed ([7]; 200 ppm alone): 80%
- % Disease Control, Observed ([8]; 12 ppm alone): 0%
- % Disease Control, Observed ([8]; 50 ppm alone): 50%
- % Disease Control, Observed ([8]; 200 ppm alone): 50%
- % Disease Control, Observed ([9]; 50 ppm alone): 0%
- % Disease Control, Observed ([9]; 200 ppm alone): 75%

Compound: N#Cc1c(Cl)c(Cl)c(Cl)c(C#N)c1Cl [chlorothalonil]
- % Disease Control, Observed ([5]; 12 ppm alone): 0%
- % Disease Control, Observed ([5]; 50 ppm alone): 0%
- % Disease Control, Observed ([5]; 200 ppm alone): 99%

Compound: N#CC(CCc1ccc(Cl)cc1)(Cn1cncn1)c1ccccc1 (stereo not drawn) [fenbuconazole, alpha-[2-(4-chlorophenyl)ethyl]-alpha-phenyl-1H-1,2,4-triazole-1-propanenitrile]
- % Disease Control, Observed ([9]; 6 ppm alone): 50%
- % Disease Control, Observed ([9]; 25 ppm alone): 75%
- % Disease Control, Observed ([9]; 50 ppm alone): 75%

Compound: CC(C)NC(=O)N1CC(=O)N(c2cc(Cl)cc(Cl)c2)C1=O [iprodione, reference compound]
- % Disease Control, Observed ([8]; 12 ppm alone): 0%
- % Disease Control, Observed ([8]; 50 ppm alone): 0%
- % Disease Control, Observed ([8]; 200 ppm alone): 50%

Compound: C=CCOC1=NS(=O)(=O)c2ccccc21 [probenazole]
- % Disease Control, Observed ([5]; 12 ppm alone): 0%
- % Disease Control, Observed ([5]; 50 ppm alone): 0%
- % Disease Control, Observed ([5]; 200 ppm alone): 0%

Compound: O=C1CCc2cccc3c2N1CC3 [pyroquilon]
- % Disease Control, Observed ([5]; 12 ppm alone): 0%
- % Disease Control, Observed ([5]; 50 ppm alone): 0%
- % Disease Control, Observed ([5]; 200 ppm alone): 85%

Compound: mancozeb [reference compound]
- % Disease Control, Observed ([5]; 50 ppm alone): 75%
- % Disease Control, Observed ([5]; 200 ppm alone): 99%
- % Disease Control, Observed ([7]; 50 ppm alone): 0%
- % Disease Control, Observed ([7]; 200 ppm alone): 0%
